System: T cells present in the PBL's
Format: cell-based, human
Conditions: anti-CD1b antibody, TB patients

mycolic acid
CD1b restriction of antigen-specific response: CD1b restricted
